row,SMILES,melting point [°C]
1,COC(=O)CN(N)c1cc(C)cc(C)c1,56 to 58
2,CNC(=N[N+](=O)[O-])NCc1cnc(Br)s1,170
3,C[C@H]1CC[C@H]2C(C)(C)[C@@H](O)CC[C@]23Oc2c(c(OCc4ccccc4)cc4c2CN(C(=O)OC(C)(C)C)C4=O)C[C@]13C,138 to 140
4,CCOC(=O)c1ccc2cc[nH]c2c1,72 to 75
5,CSC(Cc1cnn(-c2c(Cl)cc(C(F)(F)F)cc2Cl)n1)SC,97 to 98
6,Cc1cc2nncc(O)c2cc1C,> 260
7,CN1CC(C(=O)c2coc(Cc3ccc(F)cc3)c2)=C(O)C1=O,158 to 160
8,CC(=O)c1nc(Cl)ccc1N,108 to 110
9,O=C1N[C@H](C(=O)O)Cc2cc(O)c(O)cc21,268 to 272
10,Cc1ccc(C(=O)N2CCc3cc(C(=O)NO)ccc3C2)cc1,105 to 108
11,OCc1c[nH]c(=S)n1[C@H]1CCc2cc(Cl)c(Cl)cc2C1,247 to 248
12,NC(=O)CN1CC2CCCCCC2C1=O (configuration not stated),145 to 147
13,CCCn1c(=O)c2[nH]c(/C=C/c3cccnc3)nc2n(CCC)c1=O,265 to 267
14,O=C1COc2ccc(C3=Cc4cc(F)ccc4SC3c3ccc(F)cc3)cc2N1 (configuration not stated),191 to 192
15,CCc1nc2c(N)nc3cc(Br)cnc3c2n1CC(C)(C)O,235 to 236
16,CC(C)(C)OC(=O)NCC1CCN(Cc2ccccc2)C1 (configuration not stated),51 to 54
17,CCOC(=O)C1CC2CC(CP(=O)(O)O)CCC2CN1 (configuration not stated),184 to 185
18,Cn1ncc(C(=O)NC2CC2)c1Cl,105 to 107
19,CCOC(=O)C(=O)c1ccc2c(c1)CCO2,139 to 141
20,COC(=O)C1=C(C)NC(C)=C(C(=O)OC(C)(C)C)C1c1cccc(N)c1 (configuration not stated),85 to 90

row,SMILES,melting point [°C]
1,CNC1C(O)CC2C3CCC4CC(O)CCC4(C)C3CCC21C (configuration not stated),241 to 253
2,Nc1ccc(N2C(=O)CNC2=O)cc1,230 to 231
3,CS(=O)(=O)c1ccc(-c2cnn(CC(F)(F)F)c(=O)c2NC2CCC2)cc1,169 to 172
4,O=C(/C=C/c1ccccc1)N1CCCC1,100
5,CCOC(=O)Cn1cc2c(n1)CCN(C(=O)OC(C)(C)C)C2,90 to 91
6,C=CCC(O)CCCCCCCCCOc1ccccc1 (configuration not stated),50 to 52
7,CCN(CC)c1nc2cc(C)nn2c2ccncc12,118
8,OC1CSC(Oc2cc(-c3cncnc3)cc(F)c2F)C(O)C1O (configuration not stated),191
9,CCC1Cc2ccc(C(C)C(=O)O)cc2C1=O (configuration not stated),85 to 86
10,CC1(C)CC(=O)C(c2c(Cl)cc(N)cc2Cl)C(=O)C1,243
11,COc1cc(C)nc(Nc2ccccc2)n1,75 to 76
12,Cc1nc(C(C)(O)c2ccsc2)c(C)o1 (configuration not stated),83 to 84
13,c1ccc(P(c2ccccc2)c2cccc3c2-c2c(cccc2P(c2ccccc2)c2ccccc2)OCCCO3)cc1,85
14,O=C(O)CC(C(=O)O)C(=O)O,157 to 159
15,CC(C)(C)OC(=O)NC1N=C(c2ccccc2F)c2ccccc2N(CCO)C1=O (racemic),200
16,COc1cccc(Cc2nnc(NCCSCc3nccs3)[nH]c2=O)c1,128 to 129
17,O=C(OC(c1ccc(Cl)c2nc3n(c12)CCCN3c1ccc(Cl)cc1Cl)C1CC1)C1CC1 (configuration not stated),168 to 170
18,Cc1ccc(N2CCN(c3ccc4c(ncc5c4c(=O)c(C(=O)O)cn5C)c3F)CC2)cc1F,> 300
19,COC(=O)c1ccc2oc(-c3cc(C)ccc3OC)cc(=O)c2c1,154 to 156
20,O=c1[nH]c(=O)c2cc(S(=O)(=O)O)ccc2[nH]1,> 300

# Further lines, results first:
row,melting point [°C],SMILES
1,103 to 105,COC(=O)COc1cccc(OCCC(c2ccccc2)(c2ccccc2)c2ccccc2)c1
2,163 to 165,Cc1cccc(-n2nc(Sc3ccc(Cl)cc3)c(C)c(C#N)c2=O)c1
3,95 to 96,Cn1cccc1C1=CC(=O)c2ccccc2C1=O
4,157 to 158,NC(=O)[C@@H]1CCCN1C(=O)/C=C/S(=O)(=O)c1ccccc1
5,140 to 141,CC(C)N1CC(C(C(N)=O)(c2ccccc2)c2ccccn2)C1 (configuration not stated)
6,105 to 107,Cc1ccc(S(=O)(=O)N2CCC[C@H]2C(=O)N[C@@H](Cc2ccc(OCCN3CCCCCC3)cc2)C(=O)O)cc1
7,184 to 185,O=C(CNc1ccccc1)Nc1c(Cl)cccc1C(=O)O
8,106 to 108,CC(C)(C)OC(=O)NC(Cc1ccc(OCc2ccccc2)cn1)C(=O)NCc1ccc(C(=O)NO)cc1 (configuration not stated)
9,219 to 220,COc1ccc2ccc(NC(=O)c3c(F)cccc3F)nc2n1
10,202 to 203,Nc1cccc(N2C(=O)CCCC2c2ccc(Cl)c(Cl)c2)c1 (configuration not stated)
11,147 to 149,O=C(O)CCCc1cc2nc(Cl)ccc2n1S(=O)(=O)c1cccc(-c2ccccc2)c1
12,165 to 166,CS(=O)(=O)c1ccc(-c2cnn(CC(F)(F)F)c(=O)c2-c2ccc(F)c(Cl)c2)cc1
13,124 to 125,Cc1onc(-c2ccccc2)c1C(=O)NCCCN1CCN(c2ccccc2OCC(F)(F)F)CC1
14,110 to 111,O=C(O)CCCOc1ccc(Nc2ccccc2)cc1
15,135 to 136,CCOC(=O)C1=C(C)NC(CN2C(=O)c3ccccc3C2=O)=C(C(=O)OCC)C1c1cccc(Cl)c1 (configuration not stated)
16,203 to 205,O=C1N(Cc2ncccn2)c2ccccc2C12COc1cc3c(cc12)CCO3 (configuration not stated)

row,melting point [°C],SMILES
1,159 to 166,CC(NC(=O)Cc1cc(F)cc(F)c1)C(=O)NC1C(=O)NCc2cc(Cc3ccccc3)ccc21 (configuration not stated)
2,79 to 81.5,CC1(C)C(c2ccc(S(C)(=O)=O)cc2)=C(c2ccccc2)C1F (configuration not stated)
3,104 to 105,COc1ccc2c(c1)c(Cc1cc(=O)n(-c3cc(Cl)cc(Cl)c3)[nH]1)c(C)n2C(=O)c1ccc(Cl)cc1
4,28,CCc1nc2c(C)cc(C)nc2n1Cc1ccc(C(=Cc2nnn[nH]2)c2ccccc2Cl)cc1
5,132,CC(C)(CSc1ccc(Cl)cc1)C(O)C(Oc1ccc(Cl)cc1)n1cncn1 (configuration not stated)
6,152 to 154,NCCSc1nc(-c2ccccc2)c(-c2ccccc2)[nH]1
7,90 to 91,COc1cccc2c(OCCN3CCOCC3)c(-c3ccccc3)c(=O)oc12
8,135,O=C(O)[C@@H]1OC(c2ccccc2)=N[C@H]1c1ccccc1
9,214,c1ccc(-c2nnc3cc(N4CCOCC4)c(OCc4ccccn4)nn23)cc1
10,150 to 155,O=S(=O)(c1ccc(Cl)cc1)N1CCC[C@@H](Nc2nccc(-c3c(-c4cccc(CO)c4)nc4sccn34)n2)C1
11,129,O=C(NC(=NCCCc1c[nH]cn1)NCC(O)COc1ccccc1)c1ccccc1 (configuration not stated)
12,109 to 110,CCOc1cc(CCCOc2c(CC(=O)O)cccc2OC)n(Cc2ccc(Cl)cc2Cl)n1
13,214 to 215,O=C(NCc1cccc(-c2nc(=O)c3ccccc3s2)n1)c1ccccc1
14,> 268,c1ccc(CN[C@H]2CCCN[C@H]2c2ccc(-c3ccccc3)cc2)cc1 (relative stereo)
15,210 to 212,CC(C(=O)NC1CC(C(=O)O)Nc2cc(Cl)cc(Cl)c21)c1ccccc1 (configuration not stated)
16,108 to 110,N#Cc1ccc2c(c1)Sc1ccccc1C=C2
